Measured values published in ChEMBL document CHEMBL3997842, “Discovery of novel BTK inhibitors with carboxylic acids” (Bioorg Med Chem Lett, 2017).

Key:
HeLa = experiment: Inhibition of [3H]-adenosine uptake in human HeLa cells preincubated for 30 mins followed by [3H]-adenosine addition measured after 60 mins by PMT-based radiometric detection method; format: cell-based; details: 1 h
[1] = target: T1, Tyrosine-protein kinase BTK (Homo sapiens, UniProt Q06187); experiment: Inhibition of 6-His-tagged recombinant full length BTK (unknown origin) expressed in baculovirus-transfected Sf9 cells using Biotin-EQEDEPEGDYFEWLE-NH2 as substrate preincubated for 60 mins followed by substrate addition measured after 120 mins by LANCE TR-FRET assay
[2] = target: T1, Tyrosine-protein kinase BTK; experiment: Inhibition of BTK in human PBMC
[3] = Oral bioavailability in rat; format: ADME, organism-based; details: in vivo
[4] = target: Voltage-gated inwardly rectifying potassium channel KCNH2 (Homo sapiens, UniProt Q12809); experiment: Inhibition of human ERG
[5] = target: Voltage-dependent L-type calcium channel subunit alpha-1C (Homo sapiens, UniProt Q13936); experiment: Inhibition of Cav1.2 (unknown origin)
[6] = target: Sodium channel protein type 5 subunit alpha (Homo sapiens, UniProt Q14524); experiment: Inhibition of Nav1.5 (unknown origin)
[7] = Clearance in iv dosed rat; format: ADME, organism-based; details: in vivo
[8] = Unbound fraction in rat; format: ADME
[9] = Half life in iv dosed rat; format: ADME, organism-based; details: in vivo
[10] = Clearance in iv dosed dog; format: ADME, organism-based, Canis lupus familiaris; details: in vivo
[11] = Half life in iv dosed dog; format: ADME, organism-based, Canis lupus familiaris; details: in vivo
[12] = Oral bioavailability in dog; format: ADME, organism-based, Canis lupus familiaris; details: in vivo
[13] = Plasma clearance in rat; format: ADME
[14] = Half life in rat; format: ADME; details: in vivo
[15] = Apparent permeability of the compound; format: physicochemical; details: not told

Sodium channel protein type 5 subunit alpha, sequence (Q14524 whole entry): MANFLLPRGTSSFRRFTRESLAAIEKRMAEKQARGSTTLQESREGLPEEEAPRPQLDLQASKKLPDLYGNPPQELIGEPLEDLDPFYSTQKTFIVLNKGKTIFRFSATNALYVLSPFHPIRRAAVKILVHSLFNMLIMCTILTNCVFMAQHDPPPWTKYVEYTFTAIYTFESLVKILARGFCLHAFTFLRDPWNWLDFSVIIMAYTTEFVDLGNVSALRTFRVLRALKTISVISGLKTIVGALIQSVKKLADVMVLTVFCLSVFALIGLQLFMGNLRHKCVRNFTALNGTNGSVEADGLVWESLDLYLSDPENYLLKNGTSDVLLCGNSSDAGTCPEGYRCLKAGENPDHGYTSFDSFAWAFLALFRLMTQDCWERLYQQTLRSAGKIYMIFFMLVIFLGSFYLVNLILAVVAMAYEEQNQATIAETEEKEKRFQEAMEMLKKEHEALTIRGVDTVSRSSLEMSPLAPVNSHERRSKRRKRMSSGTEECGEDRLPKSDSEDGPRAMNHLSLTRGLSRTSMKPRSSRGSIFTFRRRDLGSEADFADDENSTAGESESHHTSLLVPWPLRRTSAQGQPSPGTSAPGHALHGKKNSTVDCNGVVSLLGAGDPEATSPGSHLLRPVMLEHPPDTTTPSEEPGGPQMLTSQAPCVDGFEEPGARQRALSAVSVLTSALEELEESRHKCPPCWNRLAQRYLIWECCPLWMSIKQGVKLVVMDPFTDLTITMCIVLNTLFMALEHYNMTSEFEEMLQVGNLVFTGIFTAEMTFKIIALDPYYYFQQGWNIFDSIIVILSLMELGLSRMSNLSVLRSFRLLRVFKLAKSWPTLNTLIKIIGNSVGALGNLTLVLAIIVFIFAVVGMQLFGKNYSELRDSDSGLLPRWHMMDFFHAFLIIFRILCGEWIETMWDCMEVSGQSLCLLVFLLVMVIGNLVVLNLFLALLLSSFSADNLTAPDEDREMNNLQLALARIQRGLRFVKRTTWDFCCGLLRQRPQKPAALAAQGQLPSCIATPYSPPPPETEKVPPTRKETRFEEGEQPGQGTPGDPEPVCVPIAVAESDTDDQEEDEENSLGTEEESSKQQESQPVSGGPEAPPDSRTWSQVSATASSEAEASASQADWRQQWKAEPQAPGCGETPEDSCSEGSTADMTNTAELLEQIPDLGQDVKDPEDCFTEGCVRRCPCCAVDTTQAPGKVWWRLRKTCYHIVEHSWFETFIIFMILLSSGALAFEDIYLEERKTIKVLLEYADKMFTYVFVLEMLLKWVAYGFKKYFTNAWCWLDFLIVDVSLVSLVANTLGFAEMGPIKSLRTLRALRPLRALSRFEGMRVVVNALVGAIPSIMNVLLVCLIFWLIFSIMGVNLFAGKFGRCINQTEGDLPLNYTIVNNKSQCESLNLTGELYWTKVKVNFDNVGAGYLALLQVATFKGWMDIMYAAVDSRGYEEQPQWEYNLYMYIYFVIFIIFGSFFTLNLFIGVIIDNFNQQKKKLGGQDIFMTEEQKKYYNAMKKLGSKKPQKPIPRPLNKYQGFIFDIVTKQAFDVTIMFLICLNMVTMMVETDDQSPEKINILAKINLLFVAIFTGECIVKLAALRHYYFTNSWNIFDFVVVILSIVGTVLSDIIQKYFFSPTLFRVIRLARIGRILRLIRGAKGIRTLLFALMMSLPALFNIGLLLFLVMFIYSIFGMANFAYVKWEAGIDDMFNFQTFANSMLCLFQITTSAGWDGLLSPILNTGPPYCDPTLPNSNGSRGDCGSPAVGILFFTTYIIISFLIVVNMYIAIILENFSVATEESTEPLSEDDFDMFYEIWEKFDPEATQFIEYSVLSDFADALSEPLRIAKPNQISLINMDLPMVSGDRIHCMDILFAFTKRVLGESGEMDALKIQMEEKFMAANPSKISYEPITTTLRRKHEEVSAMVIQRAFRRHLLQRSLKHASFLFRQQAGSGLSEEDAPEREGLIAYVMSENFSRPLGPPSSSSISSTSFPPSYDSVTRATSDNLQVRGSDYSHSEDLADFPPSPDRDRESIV
T1 sequence (Q06187 whole entry): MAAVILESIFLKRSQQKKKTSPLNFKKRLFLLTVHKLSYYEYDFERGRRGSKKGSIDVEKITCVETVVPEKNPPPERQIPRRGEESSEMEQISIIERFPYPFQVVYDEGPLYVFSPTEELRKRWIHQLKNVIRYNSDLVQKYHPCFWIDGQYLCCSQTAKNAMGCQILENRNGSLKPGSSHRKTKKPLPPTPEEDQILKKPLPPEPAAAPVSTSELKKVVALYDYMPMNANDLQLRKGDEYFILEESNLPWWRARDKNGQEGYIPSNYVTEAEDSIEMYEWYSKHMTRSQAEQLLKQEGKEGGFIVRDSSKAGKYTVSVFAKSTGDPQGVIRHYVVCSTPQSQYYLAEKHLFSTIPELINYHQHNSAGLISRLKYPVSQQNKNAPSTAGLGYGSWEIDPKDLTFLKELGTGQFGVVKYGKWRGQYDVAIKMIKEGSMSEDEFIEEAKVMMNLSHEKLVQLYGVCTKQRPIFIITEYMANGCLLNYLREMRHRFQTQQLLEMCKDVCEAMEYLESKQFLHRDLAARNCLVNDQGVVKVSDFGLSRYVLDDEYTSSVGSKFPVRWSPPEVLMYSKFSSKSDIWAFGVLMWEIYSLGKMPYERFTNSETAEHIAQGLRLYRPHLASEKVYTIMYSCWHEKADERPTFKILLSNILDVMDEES
Voltage-dependent L-type calcium channel subunit alpha-1C, sequence (Q13936 whole entry): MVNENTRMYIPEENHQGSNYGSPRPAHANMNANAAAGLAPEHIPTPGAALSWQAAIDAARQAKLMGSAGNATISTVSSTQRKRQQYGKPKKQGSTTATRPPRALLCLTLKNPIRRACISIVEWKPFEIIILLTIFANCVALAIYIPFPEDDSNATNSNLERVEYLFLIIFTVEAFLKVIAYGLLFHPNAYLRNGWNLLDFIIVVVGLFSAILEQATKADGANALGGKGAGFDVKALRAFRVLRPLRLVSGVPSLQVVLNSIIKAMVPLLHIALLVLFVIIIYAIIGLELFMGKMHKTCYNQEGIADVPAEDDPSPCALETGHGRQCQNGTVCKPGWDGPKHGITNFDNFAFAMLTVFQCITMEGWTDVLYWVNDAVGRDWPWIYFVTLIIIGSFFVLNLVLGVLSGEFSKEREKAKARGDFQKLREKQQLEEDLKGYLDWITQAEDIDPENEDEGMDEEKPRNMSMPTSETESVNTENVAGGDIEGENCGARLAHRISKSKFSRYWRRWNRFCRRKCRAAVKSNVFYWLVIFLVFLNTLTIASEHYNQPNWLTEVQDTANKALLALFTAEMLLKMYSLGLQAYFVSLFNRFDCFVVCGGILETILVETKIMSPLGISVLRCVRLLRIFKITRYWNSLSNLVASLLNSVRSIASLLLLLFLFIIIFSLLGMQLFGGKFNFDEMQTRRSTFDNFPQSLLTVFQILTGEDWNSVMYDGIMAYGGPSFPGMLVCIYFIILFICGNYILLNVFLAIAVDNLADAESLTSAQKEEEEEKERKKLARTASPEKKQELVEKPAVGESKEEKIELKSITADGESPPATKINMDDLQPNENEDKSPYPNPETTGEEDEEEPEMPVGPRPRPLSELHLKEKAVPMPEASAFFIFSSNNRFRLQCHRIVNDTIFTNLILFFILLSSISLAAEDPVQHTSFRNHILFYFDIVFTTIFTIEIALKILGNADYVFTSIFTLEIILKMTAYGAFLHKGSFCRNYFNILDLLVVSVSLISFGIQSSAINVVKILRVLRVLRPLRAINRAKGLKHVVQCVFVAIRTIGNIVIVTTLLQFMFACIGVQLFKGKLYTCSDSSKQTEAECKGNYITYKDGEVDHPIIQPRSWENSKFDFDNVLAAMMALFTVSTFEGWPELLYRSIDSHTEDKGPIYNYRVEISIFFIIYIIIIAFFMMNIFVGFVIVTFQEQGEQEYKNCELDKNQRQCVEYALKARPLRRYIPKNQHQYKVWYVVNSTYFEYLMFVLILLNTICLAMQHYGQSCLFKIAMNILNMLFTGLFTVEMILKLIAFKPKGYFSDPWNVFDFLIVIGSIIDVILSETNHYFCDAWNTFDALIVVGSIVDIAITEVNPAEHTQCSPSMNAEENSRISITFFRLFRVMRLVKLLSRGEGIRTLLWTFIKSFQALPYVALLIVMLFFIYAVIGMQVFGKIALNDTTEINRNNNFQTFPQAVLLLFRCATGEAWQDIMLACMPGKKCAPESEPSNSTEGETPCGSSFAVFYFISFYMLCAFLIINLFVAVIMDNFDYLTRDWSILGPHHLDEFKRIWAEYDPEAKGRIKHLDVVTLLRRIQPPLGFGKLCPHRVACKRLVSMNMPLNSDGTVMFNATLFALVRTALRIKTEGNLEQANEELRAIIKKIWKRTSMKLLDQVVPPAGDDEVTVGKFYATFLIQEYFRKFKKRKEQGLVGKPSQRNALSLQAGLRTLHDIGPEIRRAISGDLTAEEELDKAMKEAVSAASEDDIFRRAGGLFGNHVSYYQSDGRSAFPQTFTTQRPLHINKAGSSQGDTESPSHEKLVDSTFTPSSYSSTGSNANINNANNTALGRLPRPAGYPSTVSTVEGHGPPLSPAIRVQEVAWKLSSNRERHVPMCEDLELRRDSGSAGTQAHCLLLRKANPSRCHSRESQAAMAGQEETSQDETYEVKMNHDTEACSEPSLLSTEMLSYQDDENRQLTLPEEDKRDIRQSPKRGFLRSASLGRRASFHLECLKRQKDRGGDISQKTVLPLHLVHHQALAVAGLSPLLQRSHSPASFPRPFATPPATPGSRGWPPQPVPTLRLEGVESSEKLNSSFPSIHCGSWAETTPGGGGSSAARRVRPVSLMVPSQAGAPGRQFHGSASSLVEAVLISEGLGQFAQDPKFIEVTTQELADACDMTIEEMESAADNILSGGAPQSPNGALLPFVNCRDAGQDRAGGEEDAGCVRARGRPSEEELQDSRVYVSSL

Structure (SMILES): C[C@H]1CC[C@@H](c2nc(-c3ccc(C(=O)Nc4cc(C(F)(F)F)ccn4)cc3F)c3c(N)nccn23)CN1C(=O)C1CC1
- Inhibitory concentration (HeLa): 110 nM

Structure (SMILES): Nc1nccn2c1c(-c1ccc(C(=O)Nc3cc(C(F)(F)F)ccn3)cc1)nc2[C@]12CCC[C@](C(=O)O)(CC1)CC2
- IC50 [1]: 0.0003 µM
- IC50 [2]: 0.006 µM
- Inhibitory concentration (HeLa): 274 nM

Structure (SMILES): Nc1nccn2c(C34CC(C(=O)O)(C3)C4)nc(-c3ccc(C(=O)Nc4cc(C(F)(F)F)ccn4)cc3)c12
- IC50 [1]: 0.0004 µM
- IC50 [2]: 0.067 µM
- Inhibitory concentration (HeLa): 6476 nM

Structure (SMILES): C[C@]1(C(=O)O)CC[C@@](C)(c2nc(-c3ccc(C(=O)Nc4cc(C(F)(F)F)ccn4)cc3)c3c(N)nccn32)CC1
- IC50 [1]: 0.001 µM
- IC50 [2]: 0.017 µM
- bioavailability [3]: 75%
- IC50 [4]: > 60 µM
- IC50 [5]: 15 µM
- IC50 [6]: > 30 µM
- clearance [7]: 13 mL/min/kg
- Inhibitory concentration (HeLa): 1452 nM
- fraction unbound [8]: 0.001
- half-life [9]: 5 h
- clearance [10]: 13 mL/min/kg
- half-life [11]: 5.8 h
- bioavailability [12]: 77%

Structure (SMILES): CC1(C(=O)O)CCC(c2nc(-c3ccc(C(=O)Nc4cc(C(F)(F)F)ccn4)cc3)c3c(N)nccn23)CC1 (stereo unspecified)
- Inhibitory concentration (HeLa): 2492 nM

Structure (SMILES): Nc1nccn2c(C34CCC(C(=O)O)(CC3)CC4)nc(-c3ccc(C(=O)Nc4cc(C(F)(F)F)ccn4)cc3)c12
- IC50 [1]: 0.0002 µM
- IC50 [2]: 0.005 µM
- Inhibitory concentration (HeLa): 308 nM

Structure (SMILES): Nc1nccn2c([C@H]3C[C@@H]4[C@H](C3)[C@H]4C(=O)O)nc(-c3ccc(C(=O)Nc4cc(C(F)(F)F)ccn4)cc3)c12
- Inhibitory concentration (HeLa): 1927 nM

Structure (SMILES): C[C@]1(C(=O)O)CCC[C@@H](c2nc(-c3ccc(C(=O)Nc4cc(C(F)(F)F)ccn4)cc3)c3c(N)nccn23)C1 (racemic)
- fraction unbound [8]: 0.002

Structure (SMILES): Nc1nccn2c([C@@H]3CCC[C@H](C(=O)O)C3)nc(-c3ccc(C(=O)Nc4cc(C(F)(F)F)ccn4)cc3)c12
- clearance [13]: 7.9 mL/min/kg
- half-life [14]: 1.2 h
- bioavailability [3]: 2%
- IC50 [4]: > 60 µM
- IC50 [5]: > 30 µM
- IC50 [6]: > 30 µM
- Papp [15]: 7 ×10⁻⁶ cm/s

Structure (SMILES): C[C@]1(C(=O)O)CC[C@@](C)(c2nc(-c3ccc(C(=O)Nc4cc(C(F)(F)F)ccn4)cc3)c3c(N)nccn23)C1
- IC50 [1]: 0.0002 µM
- IC50 [2]: 0.008 µM
- bioavailability [3]: 39%
- IC50 [5]: 19 µM
- IC50 [6]: > 30 µM
- clearance [7]: 2 mL/min/kg
- Inhibitory concentration (HeLa): 1699 nM
- fraction unbound [8]: 0.001
- half-life [9]: 2.4 h

Structure (SMILES): Nc1nccn2c([C@@H]3CCC[C@H](c4nnc[nH]4)C3)nc(-c3ccc(C(=O)Nc4cc(C(F)(F)F)ccn4)cc3)c12
- Inhibitory concentration (HeLa): 168 nM
- Papp [15]: 20 ×10⁻⁶ cm/s

Structure (SMILES): Nc1nccn2c([C@@H]3CCC[C@H](c4nn[nH]n4)C3)nc(-c3ccc(C(=O)Nc4cc(C(F)(F)F)ccn4)cc3)c12
- Inhibitory concentration (HeLa): > 10000 nM
- Papp [15]: 3 ×10⁻⁶ cm/s

Structure (SMILES): Cn1nnnc1[C@H]1CCC[C@@H](c2nc(-c3ccc(C(=O)Nc4cc(C(F)(F)F)ccn4)cc3)c3c(N)nccn23)C1
- Inhibitory concentration (HeLa): 155 nM
- Papp [15]: 26 ×10⁻⁶ cm/s

Structure (SMILES): CC(C)[C@@]1(C(=O)O)CC[C@@](C)(c2nc(-c3ccc(C(=O)Nc4cc(C(F)(F)F)ccn4)cc3)c3c(N)nccn23)C1
- IC50 [1]: 0.0004 µM
- IC50 [2]: 0.02 µM
- bioavailability [3]: 44%
- IC50 [4]: > 60 µM
- IC50 [5]: 8 µM
- IC50 [6]: > 30 µM
- clearance [7]: 2.8 mL/min/kg
- Inhibitory concentration (HeLa): 4010 nM
- fraction unbound [8]: 0.003
- half-life [9]: 2 h

Structure (SMILES): C[C@]1(C(=O)O)CCC[C@@](C)(c2nc(-c3ccc(C(=O)Nc4cc(C(F)(F)F)ccn4)cc3)c3c(N)nccn23)C1
- IC50 [1]: 0.0001 µM
- IC50 [2]: 0.018 µM
- bioavailability [3]: 22%
- IC50 [5]: 13 µM
- IC50 [6]: > 30 µM
- clearance [7]: 9 mL/min/kg
- Inhibitory concentration (HeLa): 6073 nM
- fraction unbound [8]: 0.002
- half-life [9]: 3 h

Structure (SMILES): CCOc1cc(C(=O)Nc2cc(C(F)(F)F)ccn2)ccc1-c1nc(C23CCC(C(=O)O)(CC2)CC3)n2ccnc(N)c12
- clearance [13]: 139 mL/min/kg
- half-life [14]: 0.8 h
- bioavailability [3]: 30%
- IC50 [5]: 15 µM
- IC50 [6]: > 30 µM

Structure (SMILES): CS(=O)(=O)NC(=O)[C@H]1CCC[C@@H](c2nc(-c3ccc(C(=O)Nc4cc(C(F)(F)F)ccn4)cc3)c3c(N)nccn23)C1
- Inhibitory concentration (HeLa): 5600 nM
- Papp [15]: 2 ×10⁻⁶ cm/s

Structure (SMILES): Nc1nccn2c1c(-c1ccc(C(=O)Nc3cc(C(F)(F)F)ccn3)cc1)nc2[C@]12CC[C@](C(=O)O)(CC1)C2
- IC50 [1]: 0.0002 µM
- IC50 [2]: 0.009 µM
- Inhibitory concentration (HeLa): 459 nM

Structure (SMILES): Nc1nccn2c1c(-c1ccc(C(=O)Nc3cc(C(F)(F)F)ccn3)cc1)nc2[C@H]1CC[C@@H](C(=O)O)CC1
- Inhibitory concentration (HeLa): > 10000 nM

Structure (SMILES): Nc1nccn2c([C@@H]3CCC[C@H](c4n[nH]c(=O)o4)C3)nc(-c3ccc(C(=O)Nc4cc(C(F)(F)F)ccn4)cc3)c12
- Inhibitory concentration (HeLa): 44 nM

Structure (SMILES): Nc1nccn2c1c(-c1ccc(C(=O)Nc3cc(C(F)(F)F)ccn3)cc1)nc2[C@H]1CC[C@H](C(=O)O)CC1
- Inhibitory concentration (HeLa): > 10000 nM

Structure (SMILES): Nc1nccn2c(C34C5C6C3C3C4C5C63C(=O)O)nc(-c3ccc(C(=O)Nc4cc(C(F)(F)F)ccn4)cc3F)c12 (stereo unspecified)
- Inhibitory concentration (HeLa): 812 nM

Structure (SMILES): Nc1nccn2c([C@@H]3CCC[C@H](c4noc(=O)[nH]4)C3)nc(-c3ccc(C(=O)Nc4cc(C(F)(F)F)ccn4)cc3)c12
- Inhibitory concentration (HeLa): 9086 nM

Structure (SMILES): C[C@]1(C(=O)O)CC[C@@H](c2nc(-c3ccc(C(=O)Nc4cc(C(F)(F)F)ccn4)cc3)c3c(N)nccn23)C1
- Inhibitory concentration (HeLa): 5396 nM

Structure (SMILES): NC(=O)[C@H]1CCC[C@@H](c2nc(-c3ccc(C(=O)Nc4cc(C(F)(F)F)ccn4)cc3)c3c(N)nccn23)C1
- Inhibitory concentration (HeLa): 45 nM

Structure (SMILES): Cn1nnc([C@H]2CCC[C@@H](c3nc(-c4ccc(C(=O)Nc5cc(C(F)(F)F)ccn5)cc4)c4c(N)nccn34)C2)n1
- Inhibitory concentration (HeLa): 150 nM
- Papp [15]: 28 ×10⁻⁶ cm/s
